Test results from PMC11016868 (Computational and Structural Biotechnology Journal, 2024).
≈ marks a conversion by molar mass, not a printed value.

System: M. marinum (NTUH-M6885)
Experiment: Minimum inhibitory concentration, broth microdilution
Format: cell-based
Details: Mycobacterium marinum, 7H9 broth, 28 °C

| MIC [µg/mL] | Structure (SMILES) |
| --- | --- |
| 8 (≈ 24.1 µM) | O=C(O)c1cn(C2CC2)c2cc(N3CCNCC3)c(F)cc2c1=O [ciprofloxacin] |
| 2 (≈ 2.43 µM) | CO[C@H]1/C=C/O[C@@]2(C)Oc3c(C)c(O)c4c(O)c(c(/C=N/N5CCN(C)CC5)c(O)c4c3C2=O)NC(=O)/C(C)=C\C=C\[C@H](C)[C@H](O)[C@@H](C)[C@@H](O)[C@@H](C)[C@H](OC(C)=O)[C@@H]1C [rifampicin] |
